Values after ≈ are worked out from the molar mass of the structure shown.
Assays:
[1] = system: Streptococcus pneumoniae; assay: MIC, agar-dilution on agar with 5% defibrinated horse blood, Streptococci; format: cell-based; conditions: 10^4 CFU/spot, 37° C., 5% carbon dioxide, 48 hours
Procedure: (§1) The following results were obtained on a standard in-vitro test system. The activity is described in terms of the minimum inhibitory concentration (MIC) determined by the agar-dilution technique with an inoculum size of 10^4 CFU/spot. Typically, compounds are active in the range 0.01 to 256 μg/ml.
(§2) Streptococci and enterococci were tested on agar supplemented with 5% defibrinated horse blood, an inoculum of 10^4 CFU/spot and an incubation temperature of 37° C. in an atmosphere of 5% carbon dioxide for 48 hours—blood is required for the growth of some of the test organisms. Fastidious Gram negative organisms were tested in Mueller-Hinton broth, supplemented with hemin and NAD, grown aerobically for 24 hours at 37° C., and with an innoculum of 5×10^4 CFU/well.

[2] = system: Streptococcus pyogenes; assay: as above; format: cell-based; conditions: 10^4 CFU/spot, 37° C., 5% carbon dioxide, 48 hours
Procedure: as §1, §2

[3] = system: Staphylococcus aureus MRQR (methicillin resistant and quinolone resistant); assay: MIC, agar-dilution, Staphylococci; format: cell-based; conditions: inoculum 10^4 CFU/spot, 37° C., 24 hours
Procedure: as §1
(§3) Staphylococci were tested on agar, using an inoculum of 10^4 CFU/spot and an incubation temperature of 37° C. for 24 hours—standard test conditions for the expression of methicillin resistance.

[4] = system: Staphylococcus aureus MSQS (methicillin sensitive and quinolone sensitive); assay: MIC, agar-dilution, Staphylococci; format: cell-based; conditions: inoculum 10^4 CFU/spot, 37° C., 24 hours
Procedure: as §1, §3

[5] = system: Moraxella catarrhalis; assay: MIC, fastidious Gram negative organisms in Mueller-Hinton broth; format: cell-based; conditions: Mueller-Hinton broth with hemin and NAD, aerobic, 24 hours, 37° C., 5×10^4 CFU/well
Procedure: as §1, §2

[6] = system: Haemophilus influenzae; assay: as above; format: cell-based; conditions: Mueller-Hinton broth with hemin and NAD, aerobic, 24 hours, 37° C., 5×10^4 CFU/well
Procedure: as §1, §2

Compound	MIC [1]	MIC [2]	MIC [3]	MIC [4]	MIC [5]	MIC [6]	melting point
CC(=O)NC[C@H]1CN(c2ccc(-c3ccc(N4C[C@H](CNC(C)=O)OC4=O)cc3F)c(F)c2)C(=O)O1 [Example 1, (5S,5′S)-N-(3-{4′-[5-(Acetylamino-methyl)-2-oxo-oxazolidin-3-yl]-2,2′-difluoro-biphenyl-4-yl}-2-oxo-oxazolidin-5-ylmethyl)-acetamide]	0.06 µg/mL (≈ 0.119 µM)	0.13 µg/mL (≈ 0.259 µM)	0.5 µg/mL (≈ 0.995 µM)	0.25 µg/mL (≈ 0.498 µM)	0.5 µg/mL (≈ 0.995 µM)	2 µg/mL (≈ 3.98 µM)	–
CC(=O)NC[C@H]1CN(c2ccc(-c3ccc(N4C[C@H](CNC(C)=O)OC4=O)s3)s2)C(=O)O1 [Example 62, N-{[(5S)-3-(5′-{5-[(Acetylamino)methyl]-2-oxo-1,3-oxazolidin-3-yl}-2,2′-bithien-5-yl)-2-oxo-1,3-oxazolidin-5-yl]methyl}acetamide]	–	–	–	–	–	–	257 to 260 °C

— patent US7396847B2, “Oxazolidinone and/or isoxazoline as antibacterial agents” (AstraZeneca AB, priority 2001, dated 2008)
